The record followed here is ChEMBL document CHEMBL5154781, “Discovery of Novel Sertraline Derivatives as Potent Anti-Cryptococcus Agents” (J Med Chem, 2022).

≈ marks a conversion by molar mass, not a printed value. Calls of active or inactive are those of the source. No cut-off for these calls is given here.

Data set [1] concerns Cryptococcus neoformans. The data set is described as follows: Fungicidal activity against Cryptococcus neoformans H99 assessed as fungal growth inhibition incubated upto 72 hrs by time-fungicidal curve assay. In kind it is functional.
The subject of data set [2] is Cryptococcus neoformans. The data set is described as follows: microbe, parasite or virus in culture. The format is functional, organism-based. To be noted: H99, 72 h.
Description: Anti-cryptococcal activity against Cryptococcus neoformans H99 assessed as inhibition of fungal growth incubated for 72 hrs by microdilution method
Data set [3] in a line: microbe, parasite or virus in culture. The format is functional. Particulars: Cryptococcus; time 72 hrs.
Description: Anti-cryptococcal activity against Cryptococcus assessed as inhibition of fungal growth incubated for 72 hrs by microdilution method
Data set [4] is described as follows: Metabolic stability in mouse liver microsomes assessed as half life. In kind it is ADME, Microsome.
Data set [5] is described as follows: Metabolic stability in mouse liver microsomes assessed as clearance. In kind it is ADME, Microsome. In general terms: Liver microsomes are vesicles of endoplasmic reticulum, rich in cytochrome P450 enzymes.
A short description of data set [6]: […] in ICR mouse model of Cryptococcal meningitis infected with Cryptococcus neoformans H99 assessed as median survival time at 15 mg/kg, IG administered daily (reference value: 11 day). Particulars: in vivo, po, 264 h. In kind it is organism-based.
Data set [7] has as its system Cryptococcus neoformans. As to the kind of experiment: Anti-cryptococcal activity against Cryptococcus neoformans H99 assessed as inhibition of fungal growth at 1 to 8 ug/ml incubated upto 72 hrs by time-growth curve assay. In kind it is functional, organism-based. To be noted: dose 1-8 µg/ml.
Data set [8] relates to Cryptococcus neoformans. The data set is described as follows: Inhibition of biofilm formation in Cryptococcus neoformans H99 at 8 ug/ml incubated for 24 hrs by XTT reduction assay. In kind it is functional. (Tetrazolium assays rely on reduction of a dye to a coloured formazan, in cell work by metabolically active cells.)
Data set [9] concerns [Candida] auris. As to the kind of experiment: microbe, parasite or virus in culture. Particulars: Candidozyma auris, 0030, 48 h. The format is functional, organism-based.
Description: Antifungal activity against Candida auris 0030 assessed as inhibition of fungal growth incubated for 48 hrs by microdilution method
Data set [10] has as its system Candida albicans. The data set is described as follows: microbe, parasite or virus in culture. The format is functional, organism-based. To be noted: SC5314, 48 h.
Description: Antifungal activity against Candida albicans SC5314 assessed as inhibition of fungal growth incubated for 48 hrs by microdilution method
In data set [11] the test system is Candida albicans. As to the kind of experiment: microbe, parasite or virus in culture. The format is functional, organism-based. Particulars: Candida albicans, 904, 48 h.
Description: Antifungal activity against Candida albicans 904 assessed as inhibition of fungal growth incubated for 48 hrs by microdilution method
Data set [12] has as its system Candida albicans. As to the kind of experiment: microbe, parasite or virus in culture. In kind it is functional, organism-based. Particulars: Candida albicans, 0304103, 48 h.
Description: Antifungal activity against Candida albicans 0304103 assessed as inhibition of fungal growth incubated for 48 hrs by microdilution method
In the next data set the test system is Candida tropicalis. The data set is described as follows: microbe, parasite or virus in culture. To be noted: Candida tropicalis, 10186, 48 h. In kind it is functional, organism-based.
For data set [13], the system named is Nakaseomyces glabratus. The data set is described as follows: microbe, parasite or virus in culture. The format is functional, organism-based. Particulars: Nakaseomyces glabratus, 9073, 48 h.
Description: Antifungal activity against Candida glabrata 9073 assessed as inhibition of fungal growth incubated for 48 hrs by microdilution method
Data set [14] concerns Nakaseomyces glabratus. The data set is described as follows: microbe, parasite or virus in culture. In kind it is functional, organism-based. To be noted: Nakaseomyces glabratus, 9025, 48 h.
Description: Antifungal activity against Candida glabrata 9025 assessed as inhibition of fungal growth incubated for 48 hrs by microdilution method
For a further data set, the system named is Pichia kudriavzevii. As to the kind of experiment: microbe, parasite or virus in culture. The format is functional, organism-based. To be noted: Pichia kudriavzevii, 10153, 48 h.
The subject of data set [15] is [Candida] auris. As to the kind of experiment: microbe, parasite or virus in culture. The format is functional, organism-based. To be noted: Candidozyma auris, 0029, 48 h.
Description: Antifungal activity against Candida auris 0029 assessed as inhibition of fungal growth incubated for 48 hrs by microdilution method
Data set [16] relates to [Candida] auris. The data set is described as follows: Antifungal activity against Candida auris 15448 assessed as inhibition of fungal growth incubated for 48 hrs by microdilution method. In kind it is functional, organism-based. To be noted: Candidozyma auris, 15448, 48 h.
For data set [17], the system named is Aspergillus fumigatus. As to the kind of experiment: microbe, parasite or virus in culture. In kind it is functional, organism-based. To be noted: Aspergillus fumigatus, 7544, 48 h.
Description: Antifungal activity against Aspergillus fumigatus 7544 assessed as inhibition of fungal growth incubated for 48 hrs by microdilution method
Data set [18] relates to Aspergillus fumigatus. As to the kind of experiment: microbe, parasite or virus in culture. In kind it is functional, organism-based. To be noted: 023-2, 48 h.
Description: Antifungal activity against Aspergillus fumigatus 023-2 assessed as inhibition of fungal growth incubated for 48 hrs by microdilution method
Data set [19] concerns Cryptococcus neoformans. As to the kind of experiment: Inhibition of Cryptococcus neoformans H99 delta5,6-desaturase assessed as upregulation of ERG1 gene expression at 2 ug/ml incubated for 24 hrs by RT-PCR analysis. To be noted: dose 2.0 µg/ml.
In data set [20] the test system is Cryptococcus neoformans. As to the kind of experiment: Inhibition of Cryptococcus neoformans H99 delta5,6-desaturase assessed as upregulation of ERG2 gene expression at 2 ug/ml incubated for 24 hrs by RT-PCR analysis. Particulars: dose 2.0 µg/ml.
Data set [21] deals with Cryptococcus neoformans. The data set is described as follows: Inhibition of Cryptococcus neoformans H99 delta5,6-desaturase assessed as upregulation of ERG3 gene expression at 2 ug/ml incubated for 24 hrs by RT-PCR analysis. To be noted: dose 2.0 µg/ml.
Data set [22] has as its system Cryptococcus neoformans. As to the kind of experiment: Inhibition of Cryptococcus neoformans H99 delta5,6-desaturase assessed as upregulation of ERG4 gene expression at 2 ug/ml incubated for 24 hrs by RT-PCR analysis. Particulars: dose 2.0 µg/ml.
In data set [23] the test system is Cryptococcus neoformans. The data set is described as follows: Inhibition of Cryptococcus neoformans H99 delta5,6-desaturase assessed as upregulation of ERG5 gene expression at 2 ug/ml incubated for 24 hrs by RT-PCR analysis. Particulars: dose 2.0 µg/ml.
Data set [24] has as its system Cryptococcus neoformans. As to the kind of experiment: Inhibition of Cryptococcus neoformans H99 delta5,6-desaturase assessed as upregulation of ERG11 gene expression at 2 ug/ml incubated for 24 hrs by RT-PCR analysis. To be noted: dose 2.0 µg/ml.
Data set [25] deals with Cryptococcus neoformans. As to the kind of experiment: Inhibition of Cryptococcus neoformans H99 delta5,6-desaturase assessed as upregulation of ERG24 gene expression at 2 ug/ml incubated for 24 hrs by RT-PCR analysis. Particulars: dose 2.0 µg/ml.
For data set [26], the system named is Cryptococcus neoformans. The data set is described as follows: Anti-cryptococcal activity against Cryptococcus neoformans H99 assessed as inhibition of fungal growth at 4 to 8 ug/ml measured for 3 to 48 hrs by time-growth curve assay. The format is functional, organism-based. Particulars: dose 4-8 µg/ml, time 3-48 hrs.
Data set [27] relates to Cryptococcus neoformans. The data set is described as follows: Inhibition of biofilm formation in Cryptococcus neoformans H99 at 2 ug/ml incubated for 24 hrs by XTT reduction assay. In kind it is functional.
The test system of data set [28] is Cryptococcus neoformans. The data set is described as follows: Inhibition of biofilm formation in Cryptococcus neoformans H99 at 0.5 to 8 ug/ml incubated for 24 hrs by XTT reduction assay. Particulars: dose 0.5-8 µg/ml, DDE = dose-dependent effect. The format is functional, organism-based.

Description for Candida tropicalis: Antifungal activity against Candida tropicalis 10186 assessed as inhibition of fungal growth incubated for 48 hrs by microdilution method
Description for Pichia kudriavzevii: Antifungal activity against Candida krusei 10153 assessed as inhibition of fungal growth incubated for 48 hrs by microdilution method

Turning to `C[C@@H]1[C@H](O)[C@@H](C)/C=C/C=C/C=C/C=C/C=C/C=C/C=C/[C@H](O[C@@H]2O[C@H](C)[C@@H](O)[C@H](N)[C@@H]2O)C[C@@H]2O[C@](O)(C[C@@H](O)C[C@@H](O)[C@H](O)CC[C@@H](O)C[C@@H](O)CC(=O)O[C@H]1C)C[C@H](O)[C@H]2C(=O)O` [AMPHOTERICIN B], the minimum fungicidal concentration (MFC) (as a rule, the lowest tested concentration that kills the fungus rather than only halting it) in the data set on Cryptococcus neoformans [1] was 4 µg/mL (≈ 4.33 µM). The half-maximal inhibitory concentration (IC50) – broadly, the concentration at which inhibition is half-maximal – with Cryptococcus neoformans [2] came to 0.25 µg/mL (≈ 0.271 µM). For the same compound, the MIC50 in data set [3] stood at 0.13 µg/mL (≈ 0.141 µM).
In turn, `Cl.O=C(CNC1CCC(c2ccc(Cl)c(Cl)c2)c2sccc21)N1CCCCC1` (stereo not given) came in with an IC50 with Cryptococcus neoformans [2] of 8 µg/mL.
Turning to `Cl.Clc1ccc(C2CCC(NCc3ncccn3)c3ccsc32)cc1Cl` (stereo not given), in the data set with Cryptococcus neoformans [2], half-maximal inhibition (IC50) required 32 µg/mL.
For the compound `CC(C)NC1CCC(c2ccc(Cl)c(Cl)c2)c2sccc21.Cl` (stereo not given), the IC50 in the data set on Cryptococcus neoformans [2] came out at 16 µg/mL.
In turn, `Cl.Clc1ccc(C2CCC(NCc3ccncc3)c3ccsc32)cc1Cl` (stereo not given) gave an IC50 in the data set with Cryptococcus neoformans [2] of 16 µg/mL.
Consider `Cl.Clc1ccc(C2CCC(NC3CCCCC3)c3ccsc32)cc1Cl` (stereo not given), for which 8 µg/mL corresponded to half-maximal inhibition in the data set on Cryptococcus neoformans [2] (IC50).
`CC(C)(C)CNC1CCC(c2ccc(Cl)c(Cl)c2)c2sccc21.Cl` (stereo not given) gave an IC50 with Cryptococcus neoformans [2] of 4 µg/mL.
In the data set with Cryptococcus neoformans [2], `Cc1ccc(C2CCC(NCCC3CCCCC3)c3ccsc32)cc1C.Cl` (stereo not given) showed an IC50 of 32 µg/mL.
Still for that read-out and setting: with `Cl.Clc1ccc(C2CCC(NCC3CCCCC3)c3ccsc32)cc1Cl` (stereo not given) the figure was 2 µg/mL.
For the compound `CN[C@H]1CC[C@@H](c2ccc(Cl)c(Cl)c2)c2ccccc21` [SERTRALINE], the half-life (in general, how long it takes for the measured level to halve) in data set [4] is 41.5 min. Also, the CLH in [5] was 132 µL/min/mg. The MST in data set [6] came out at 11.5 days.
With `OC(Cn1cncn1)(Cn1cncn1)c1ccc(F)cc1F` [FLUCONAZOLE], the outcome in the data set on Cryptococcus neoformans [7], in the data set with Cryptococcus neoformans [19], in the data set on Cryptococcus neoformans [20], in the data set on Cryptococcus neoformans [21], in the data set on Cryptococcus neoformans [22] and in the data set with Cryptococcus neoformans [23] was Active. Besides, the outcome with Cryptococcus neoformans [24] and in the data set with Cryptococcus neoformans [25] was Active. Also, testing at 8 µg/mL with Cryptococcus neoformans [8] gave an inhibition of 50%. The IC50 in data set [Candida] auris [9] was above 64 µg/mL; in the data set with Cryptococcus neoformans [2] it was 2 µg/mL (≈ 6.53 µM); in the data set with Candida albicans [10], 0.25 µg/mL (≈ 0.816 µM); with Candida albicans [11] it was above 64 µg/mL; with Candida albicans [12], above 64 µg/mL; in the data set with Candida tropicalis, above 64 µg/mL. For the same compound, the half-inhibitory concentration (IC50) was 64 µg/mL (≈ 209 µM) in the data set with Nakaseomyces glabratus [13]; 16 µg/mL (≈ 52.2 µM) in the data set with Nakaseomyces glabratus [14]; 64 µg/mL (≈ 209 µM) with Pichia kudriavzevii; above 64 µg/mL in data set [Candida] auris [15]; 4 µg/mL (≈ 13.1 µM) in data set [Candida] auris [16]; above 64 µg/mL with Aspergillus fumigatus [17]. This compound also came in with a concentration for half-maximal inhibition (IC50) in the data set with Aspergillus fumigatus [18] above 64 µg/mL. The MIC50 in [3] stood at 1.14 µg/mL (≈ 3.72 µM).
Compound `Cl.Clc1ccc(C2CCC(NC3CCCC3)c3ccsc32)cc1Cl` (stereo not given) came in with a 50% inhibitory concentration (IC50) with Cryptococcus neoformans [2] of 8 µg/mL.
The same measure, in the same setting: with `CN1CCC(CCNC2CCC(c3ccc(Cl)c(Cl)c3)c3sccc32)CC1.Cl` (stereo not given) the figure was 2 µg/mL.
`Cl.Clc1ccc(C2CCC(NCCC3CCCCC3)c3ccsc32)cc1` (stereo not given) displayed an IC50 in the data set on Cryptococcus neoformans [2] of 64 µg/mL.
`Cl.Clc1ccc(C2CCC(NCCCC3CCCCC3)c3ccsc32)cc1Cl` (stereo not given) returned an IC50 in the data set on Cryptococcus neoformans [2] of 2 µg/mL.
Still for that read-out and setting: as for `CN(C)C1CCC(c2ccc(Cl)c(Cl)c2)c2sccc21.Cl` (stereo not given), the figure is 32 µg/mL; as for `Cl.Clc1ccc(C2CCC(NC3CCOCC3)c3ccsc32)cc1Cl` (stereo not given), 4 µg/mL.
On to `O=C(c1ccc(F)cc1)C1CCN(CCn2c(=O)[nH]c3ccccc3c2=O)CC1` [KETANSERIN], for which, in data set [4], the half-life worked out at 20.1 min. Besides, the CLH in data set [5] was determined as 271 µL/min/mg.
In the data set on Cryptococcus neoformans [2], `Cl.Clc1ccc(C2CCC(NC3CC3)c3ccsc32)cc1Cl` (stereo not given) gave a 50% inhibitory concentration (IC50) of 16 µg/mL.
With `CNC1CCC(c2ccc(Cl)c(Cl)c2)c2sccc21.Cl` (stereo not given), the IC50 in the data set with Cryptococcus neoformans [2] amounted to 8 µg/mL.
In the case of `CNC1CC(c2ccc(Cl)c(Cl)c2)c2ccccc21.Cl` (stereo not given), it took 16 µg/mL to reach half-maximal inhibition in the data set with Cryptococcus neoformans [2] (IC50).
In the case of `Nc1nc(=O)[nH]cc1F` [FLUCYTOSINE], in the data set on Cryptococcus neoformans [2], the half-inhibitory concentration (IC50) worked out at 2 µg/mL (≈ 15.5 µM).
For the compound `Cl.Clc1ccc(C2CCC(NCc3ccccc3)c3ccsc32)cc1Cl` (stereo not given), the IC50 in the data set on Cryptococcus neoformans [2] is 32 µg/mL.
As to `Cl.Clc1ccc(C2CCC(NCCC3CCCCC3)c3ccsc32)cc1Cl` (stereo not given), the result in the data set on Cryptococcus neoformans [26] was Active. Further, testing at 2 µg/mL with Cryptococcus neoformans [27] gave an inhibition of 50%. This compound also registered a concentration for half-maximal inhibition (IC50) in the data set on Cryptococcus neoformans [2] of 1 µg/mL. Further, the inhibition (in general, the relative decrease from the control value, in per cent) with Cryptococcus neoformans [28] is “Dde”.
`Cl.Clc1ccc(C2CCC(NCCC3CCCCC3)c3ccsc32)c(Cl)c1` (stereo not given) came in with a concentration for half-maximal inhibition (IC50) in the data set on Cryptococcus neoformans [2] of 4 µg/mL.
